According to patent publication US20250304623A1, “PEPTIDES FOR INTRACELLULAR DELIVERY” (UNIVERSIDADE DE SANTIAGO DE COMPOSTELA, priority 2022, published 2025):
*: point of attachment. NHNH2 = NN*

How the values were obtained:
Type in all cases: cell-based
[1] = tested on: Hek293 cells; test: RLuc pDNA delivery, robotic library screening, Hek293
[2] = tested on: ARPE19 cells; test: RLuc pDNA delivery, robotic library screening, ARPE19
[3] = tested on: A549 cells; test: RLuc pDNA delivery, robotic library screening, A549
Method: (§1) Cells were seeded in a 96 well plate the day before the experiment at a concentration of 60,000 cell/mL (100 μL/w) in DMEM+10% FBS+1% Gln-Abt. For robotic library screening, the delivery of pDNA encoding for the expression of Renilla luciferase gene (RLuc, pRL-CMV (Promega, #E2261)) in six different cell lines was performed. Amphihilic molecule stock solutions in DMSO were diluted with DMEM and freshly mixed with pDNA stock solutions in DMEM prior to transfection experiments, to afford several complexes at different amphiphile concentration (2-10 μM) while maintaining a constant final pDNA concentration of 2 ng/μL. The mixture was shaken for 30 min at room temperature before the addition to the cells. The cell medium was aspirated, and cells were washed twice with PBS. Finally, 50 μL of the complex's solution were added to the cells and incubated for 4 h. After the incubation, the medium was replaced by 100 μL of fresh DMEM supplemented with 10% FBS. 72 hours after transfection the DMEM was removed, cells were washed once with HBSS and 90 μL of HBSS were added to each well. Cells were incubated at 37° C. for 30 minutes. Then basal luminescence levels were read in a plate reader. Immediately, 10 μL of coelenterazine h in HBSS were added to each well (5 μM final concentration) and cells were incubated at 37° C. for 10 minutes. Finally, the total luminescence measurement of the plates was performed. Amphiphile transfection efficiency was compared and normalized to Lipofectamine® 2000 efficiency (value of 1 in Tables 1-5 and 7; bold numbers). All experiments were done in triplicate.
(§2) Tables 1-7: RLuc (pDNA) or EGFP (mRNA) expression levels were normalized to Lipofectamine reagents (value=1) and expressed as fold-times signal increase. In the case of siRNA, the siRNA treated cells fluorescence was compared with siMOCK control fluorescence, while Cas9-RNP mediated knockout was measured against the fluorescence of untreated cells. In both siRNA and Cas9-RNP, values are expressed as % fluorescence reduction. Amphiphile concentration was 5 μM in all cases. All experiments were performed in triplicate.
(§3) Tables 8-13 show the mean (triplicates) luminescent intensity (RLU) measured after the transfection of RLuc pDNA by different amphiphiles at different concentrations in a variety of cell lines. Background luminescence values, accounted by untransfected control cells, were subtracted for processing.

[4] = tested on: Hela cells; test: RLuc pDNA delivery, robotic library screening, HeLa; conditions: Hela
Method: as §1, with “Amphihilic molecule stock solutions in DMSO were diluted with DMEM and freshly mixed with pDNA stock solutions in DMEM prior to transfection experiments, to afford several complexes at different amphiphile concentration (2-10 μM) while maintaining a constant final pDNA concentration of 2 ng/μL.” left out
as §2, §3

[5] = tested on: HepG2 cells; test: RLuc pDNA delivery, robotic library screening, HepG2; conditions: Oleyl
Method: as §1, §2, §3

[6] = tested on: HCT116 cells; test: RLuc pDNA delivery, robotic library screening, HCT116

Ac-RK*RRK*K*R-NH2 (Ac-RK(NHNH2)RRK(NHNH2)K(NHNH2)R-NH2; not fully specified; printed as Ac-RK*RRK*K*R-NH2; also: K*2,K*5,K*6: native or modified lysine (ε-amide to a linker)) [7.3(L-R)]
mean luminescent intensity (RLuc pDNA) ([1]; Myristoleyl, 5 μM): 46216 RLU
mean luminescent intensity (RLuc pDNA) ([1]; Myristoleyl, 10 μM): 51837 RLU
mean luminescent intensity (RLuc pDNA) ([1]; Myristoleyl, 15 μM): 10351 RLU
mean luminescent intensity (RLuc pDNA) ([1]; Palmitoleyl, 5 μM): 73751 RLU
mean luminescent intensity (RLuc pDNA) ([1]; Palmitoleyl, 10 μM): 115755 RLU
mean luminescent intensity (RLuc pDNA) ([1]; Palmitoleyl, 15 μM): 29282 RLU
mean luminescent intensity (RLuc pDNA) ([1]; Petroselinyl, 5 μM): 9983 RLU
mean luminescent intensity (RLuc pDNA) ([1]; Petroselinyl, 10 μM): 59396 RLU
mean luminescent intensity (RLuc pDNA) ([1]; Petroselinyl, 15 μM): 8037 RLU
mean luminescent intensity (RLuc pDNA) ([2]; Myristoleyl, 5 μM): 522 RLU
mean luminescent intensity (RLuc pDNA) ([2]; Myristoleyl, 10 μM): 20 RLU
mean luminescent intensity (RLuc pDNA) ([2]; Myristoleyl, 15 μM): 56 RLU
mean luminescent intensity (RLuc pDNA) ([2]; Palmitoleyl, 5 μM): 2987 RLU
mean luminescent intensity (RLuc pDNA) ([2]; Petroselinyl, 5 μM): 2177 RLU
mean luminescent intensity (RLuc pDNA) ([3]; Oleyl, 5 μM): 13651 RLU
mean luminescent intensity (RLuc pDNA) ([3]; Palmitoleyl, 5 μM): 5366 RLU
mean luminescent intensity (RLuc pDNA) ([3]; Palmitoleyl, 15 μM): 12440 RLU
mean luminescent intensity (RLuc pDNA) ([3]; Petroselinyl, 15 μM): 7194 RLU
mean luminescent intensity (RLuc pDNA) ([4]; Myristoleyl, 5 μM): 3647 RLU
mean luminescent intensity (RLuc pDNA) ([4]; Myristoleyl, 10 μM): 2076 RLU
mean luminescent intensity (RLuc pDNA) ([4]; Myristoleyl, 15 μM): 22 RLU
mean luminescent intensity (RLuc pDNA) ([4]; Palmitoleyl, 5 μM): 62538 RLU
mean luminescent intensity (RLuc pDNA) ([4]; Palmitoleyl, 10 μM): 25113 RLU
mean luminescent intensity (RLuc pDNA) ([4]; Palmitoleyl, 15 μM): 3405 RLU
mean luminescent intensity (RLuc pDNA) ([4]; Petroselinyl, 5 μM): 4972 RLU
mean luminescent intensity (RLuc pDNA) ([5]; 5 μM): 1696 RLU
mean luminescent intensity (RLuc pDNA) ([5]; 10 μM): 22303 RLU
mean luminescent intensity (RLuc pDNA) ([5]; 15 μM): 6498 RLU
mean luminescent intensity (RLuc pDNA) ([6]; Myristoleyl, 5 μM): 7939 RLU
mean luminescent intensity (RLuc pDNA) ([6]; Myristoleyl, 10 μM): −83 RLU
mean luminescent intensity (RLuc pDNA) ([6]; Myristoleyl, 15 μM): −41 RLU
mean luminescent intensity (RLuc pDNA) ([6]; Palmitoleyl, 5 μM): 22225 RLU
mean luminescent intensity (RLuc pDNA) ([6]; Palmitoleyl, 10 μM): 41280 RLU
mean luminescent intensity (RLuc pDNA) ([6]; Petroselinyl, 5 μM): 2832 RLU
mean luminescent intensity (RLuc pDNA) ([6]; Petroselinyl, 10 μM): 9686 RLU
